From patent publication US20040136926A1, “Intra-oral drug delivery system” (priority 2002, published 2004)
Where a SMILES comes first, the peptide text is derived from it. Bridges are numbered along the chain shown (N, C = ends). Roman numbers before positions name the chains, in order. Where no end group is shown, it is not given here. [ ]: non-standard residue; d: D form. pS = N[C@@H](COP(=O)(O)O)C(=O)O

Legend:
[1] = Peptide adsorption to hydroxyapatite (HAP) beads; format: binding; conditions: for K × 10^−5 (affinity coefficient) / N × 10^6 (adsorption parameter): adsorption to HAP, C/Q = 1/KN + C/N
From the text: The extent to which the hybrid molecule gets adsorbed was examined using hydroxyapatite (HAP) beads as described previously (Raj, et al., supra, 1992).

Candida albicans = test: Fungicidal activity of hybrid adsorbed HAP beads, fluorescent probes (membrane damage); format: cell-based; conditions: hybrid adsorbed HAP surface, as a function of time
Experimental: (§1) The fungicidal and bactericidal activity of the hybrid adsorbed HAP beads was determined using fluorescent probes. The increase in fluorescence as a function of microbial membrane damage was monitored. […] Candida albicans and Actinobacillus actinomycetemcomitans were used as the fungal and bacterial organisms, respectively.

[2] = system: Actinobacillus actinomycetemcomitans; test: Bactericidal activity of hybrid adsorbed HAP beads, fluorescent probes (membrane damage); format: cell-based; conditions: hybrid adsorbed HAP surface, as a function of time
Experimental: as §1

[3] = literature (Raj, et al., 1992); cited from earlier work

Row | Molecule | K × 10^−5 (affinity coefficient) [1] [liter mol^−1] | N × 10^6 (adsorption parameter) [1] [mol m^−2] | Affinity for HAP (in words) ([1]; hydroxyapatite beads) | Microbial membrane damage (increase in fluorescence) vs control HAP (Candida albicans) | Microbial membrane damage (increase in fluorescence) vs control HAP [2] | Affinity for HAP compared with whole statherin [3]
1 | CC[C@H](C)[C@@H]1NC(=O)[C@H](CCCNC(=N)N)NC(=O)[C@@H](NC(=O)[C@H](CC(C)C)NC(=O)[C@@H](N)CCCNC(=N)N)CSSC[C@@H](C(=O)N[C@@H](CCCNC(=N)N)C(=O)OC[C@H](NC(=O)[C@H](CC(=O)O)NC(=O)[C@H](CC(=O)O)NC(=O)[C@H](CC(=O)O)NC(=O)[C@H](CCC(=O)O)NC(=O)[C@@H](N)CCC(=O)O)C(=O)O)NC(=O)[C@H](C(C)C)NC(=O)[C@H](CCCNC(=N)N)NC(=O)[C@H]([C@@H](C)CC)NC(=O)[C@H](C(C)C)NC(=O)[C@H](C(C)C)NC1=O [Hybrid] (I: H-RLCRIVVIRVCR / II: H-EEDDDS-OH; disulfide I:3-I:11; ester I:C-II:6; N-terminus assumed) | 10.8 ± 1.8 | 1.6 ± 0.2 | quite comparable to salivary statherin | significantly caused microbial membrane damage | significantly caused microbial membrane damage | 
2 | D-D-D-E-E-K-F-L-R-R-I-G-R-F-G (DDDEEKFLRRIGRFG) [SNA15, Analog of SN15] |  |  |  |  |  | higher affinity for HAP than the whole molecule
3 | D-Sp-Sp-E-E-K-F-L-R-R-I-G-R-F-G (D[pS][pS]EEKFLRRIGRFG; UniProt P02808 20-34, looked up, fragment) [SN15, Amino-terminal 15-residue fragment of statherin] |  |  |  |  |  | higher affinity for HAP than the whole molecule
4 | D-Sp-Sp-EEKFLRRIGRFGYGYGPYQPVPEQPLYPQPYQPQYQQYTF (D[pS][pS]EEKFLRRIGRFGYGYGPYQPVPEQPLYPQPYQPQYQQYTF; UniProt P02808 20-62, looked up) [Statherin, Salivary phosphorylated polypeptide, reference compound] | 11.1 ± 2.0 | 0.9 ± 0.05 |  |  |  | 
